{"source": "ChEMBL document CHEMBL3769388", "about": "“Optimization of a Dicarboxylic Series for in Vivo Inhibition of Citrate Transport by the Solute Carrier 13 (SLC13) Family” (J Med Chem, 2016)", "key": {"[1]": {"molecular_target": "Angiotensin-converting enzyme (Homo sapiens) (UniProt P12821)", "assay": "Inhibition of ACE1 (unknown origin)"}, "[2]": {"molecular_target": "T1, Solute carrier family 13 member 2 (Homo sapiens, UniProt Q13183)", "T1 sequence (Q13183 whole entry)": "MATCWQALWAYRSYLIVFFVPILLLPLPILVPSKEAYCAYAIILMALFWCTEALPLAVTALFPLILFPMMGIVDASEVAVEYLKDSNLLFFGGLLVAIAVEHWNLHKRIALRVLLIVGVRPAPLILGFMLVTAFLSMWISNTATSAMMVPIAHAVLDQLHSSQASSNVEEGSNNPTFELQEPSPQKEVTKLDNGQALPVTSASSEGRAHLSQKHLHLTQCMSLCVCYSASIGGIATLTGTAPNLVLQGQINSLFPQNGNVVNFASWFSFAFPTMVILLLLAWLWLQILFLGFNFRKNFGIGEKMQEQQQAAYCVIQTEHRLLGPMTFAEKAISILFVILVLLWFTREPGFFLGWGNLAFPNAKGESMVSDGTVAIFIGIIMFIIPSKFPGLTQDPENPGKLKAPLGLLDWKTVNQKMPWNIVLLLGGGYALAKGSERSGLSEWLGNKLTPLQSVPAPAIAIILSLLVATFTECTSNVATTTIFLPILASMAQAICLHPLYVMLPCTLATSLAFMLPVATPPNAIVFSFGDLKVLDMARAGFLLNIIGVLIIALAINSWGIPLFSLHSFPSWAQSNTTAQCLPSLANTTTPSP", "assay": "Inhibition of NaDC1 (unknown origin) expressed in HEK293 cells assessed as inhibition of [14C]citrate uptake by microbeta plate reader analysis", "type": "cell-based"}, "[3]": {"molecular_target": "Cytochrome P450 3A4 (Homo sapiens, UniProt P08684)", "assay": "Inhibition of CYP3A4 (unknown origin)", "type": "ADME"}, "[4]": {"molecular_target": "ATP-citrate synthase (Homo sapiens) (UniProt P53396)", "assay": "Inhibition of ACL (unknown origin) upto 30 uM"}, "[5]": {"molecular_target": "Proto-oncogene tyrosine-protein kinase Src (Homo sapiens) (UniProt P12931)", "assay": "Inhibition of SRC (unknown origin)"}, "[6]": {"molecular_target": "3',5'-cyclic-AMP phosphodiesterase 4D (Homo sapiens) (UniProt Q08499)", "sequence (Q08499 whole entry)": "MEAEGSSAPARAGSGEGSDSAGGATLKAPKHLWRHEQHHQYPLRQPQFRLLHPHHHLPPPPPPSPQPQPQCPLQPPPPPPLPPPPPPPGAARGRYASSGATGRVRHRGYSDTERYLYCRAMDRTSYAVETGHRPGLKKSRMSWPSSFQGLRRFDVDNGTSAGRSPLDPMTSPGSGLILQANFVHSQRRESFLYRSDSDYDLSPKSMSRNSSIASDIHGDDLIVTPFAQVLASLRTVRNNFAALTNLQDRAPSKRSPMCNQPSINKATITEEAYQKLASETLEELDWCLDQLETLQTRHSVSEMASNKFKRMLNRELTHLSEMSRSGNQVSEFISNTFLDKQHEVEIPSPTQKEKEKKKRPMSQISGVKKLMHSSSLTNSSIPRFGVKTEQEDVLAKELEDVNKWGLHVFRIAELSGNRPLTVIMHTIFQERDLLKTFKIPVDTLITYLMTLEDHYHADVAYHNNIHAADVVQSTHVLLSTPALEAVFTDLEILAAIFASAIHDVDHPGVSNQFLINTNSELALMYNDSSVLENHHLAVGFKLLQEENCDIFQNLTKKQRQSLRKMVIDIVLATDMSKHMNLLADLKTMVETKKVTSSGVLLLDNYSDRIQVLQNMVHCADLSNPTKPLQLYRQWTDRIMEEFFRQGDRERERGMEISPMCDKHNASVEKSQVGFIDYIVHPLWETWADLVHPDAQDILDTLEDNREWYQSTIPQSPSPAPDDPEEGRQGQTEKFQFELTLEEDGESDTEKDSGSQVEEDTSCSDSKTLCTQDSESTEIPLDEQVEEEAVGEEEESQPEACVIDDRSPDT", "assay": "Inhibition of PDE4D2 (unknown origin)"}, "[7]": {"molecular_target": "Sodium-dependent noradrenaline transporter (Homo sapiens) (UniProt P23975)", "sequence (P23975 whole entry)": "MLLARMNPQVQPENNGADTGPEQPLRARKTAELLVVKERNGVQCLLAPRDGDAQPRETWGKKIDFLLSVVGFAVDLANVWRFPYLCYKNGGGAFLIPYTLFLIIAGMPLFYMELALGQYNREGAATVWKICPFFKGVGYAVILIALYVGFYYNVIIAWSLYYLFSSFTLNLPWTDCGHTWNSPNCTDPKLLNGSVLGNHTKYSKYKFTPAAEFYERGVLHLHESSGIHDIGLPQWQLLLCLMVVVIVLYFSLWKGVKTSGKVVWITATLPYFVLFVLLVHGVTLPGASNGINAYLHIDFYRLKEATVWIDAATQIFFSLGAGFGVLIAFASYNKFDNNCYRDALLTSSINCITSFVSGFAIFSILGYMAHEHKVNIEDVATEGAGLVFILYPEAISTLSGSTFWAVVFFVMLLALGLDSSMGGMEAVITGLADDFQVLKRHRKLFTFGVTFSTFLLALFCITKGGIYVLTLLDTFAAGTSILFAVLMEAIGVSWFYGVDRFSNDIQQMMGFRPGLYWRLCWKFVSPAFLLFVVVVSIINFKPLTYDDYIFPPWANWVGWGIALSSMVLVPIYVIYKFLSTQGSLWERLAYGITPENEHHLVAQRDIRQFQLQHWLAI", "assay": "Inhibition of NAT (unknown origin)"}, "[8]": {"molecular_target": "Sodium channel protein type 5 subunit alpha (Homo sapiens, UniProt Q14524)", "assay": "Inhibition of NaV1.5 (unknown origin)"}, "[9]": {"system": "Mus musculus", "assay": "Effect on glucose infusion rate in DIO C57/B6 mouse during hyperinsulinemic-euglycemic clamp at 44 mg/kg/hr for 90 mins", "type": "functional, organism-based"}, "[10]": {"molecular_target": "Glucocorticoid receptor (Homo sapiens) (UniProt P04150)", "sequence (P04150 whole entry)": "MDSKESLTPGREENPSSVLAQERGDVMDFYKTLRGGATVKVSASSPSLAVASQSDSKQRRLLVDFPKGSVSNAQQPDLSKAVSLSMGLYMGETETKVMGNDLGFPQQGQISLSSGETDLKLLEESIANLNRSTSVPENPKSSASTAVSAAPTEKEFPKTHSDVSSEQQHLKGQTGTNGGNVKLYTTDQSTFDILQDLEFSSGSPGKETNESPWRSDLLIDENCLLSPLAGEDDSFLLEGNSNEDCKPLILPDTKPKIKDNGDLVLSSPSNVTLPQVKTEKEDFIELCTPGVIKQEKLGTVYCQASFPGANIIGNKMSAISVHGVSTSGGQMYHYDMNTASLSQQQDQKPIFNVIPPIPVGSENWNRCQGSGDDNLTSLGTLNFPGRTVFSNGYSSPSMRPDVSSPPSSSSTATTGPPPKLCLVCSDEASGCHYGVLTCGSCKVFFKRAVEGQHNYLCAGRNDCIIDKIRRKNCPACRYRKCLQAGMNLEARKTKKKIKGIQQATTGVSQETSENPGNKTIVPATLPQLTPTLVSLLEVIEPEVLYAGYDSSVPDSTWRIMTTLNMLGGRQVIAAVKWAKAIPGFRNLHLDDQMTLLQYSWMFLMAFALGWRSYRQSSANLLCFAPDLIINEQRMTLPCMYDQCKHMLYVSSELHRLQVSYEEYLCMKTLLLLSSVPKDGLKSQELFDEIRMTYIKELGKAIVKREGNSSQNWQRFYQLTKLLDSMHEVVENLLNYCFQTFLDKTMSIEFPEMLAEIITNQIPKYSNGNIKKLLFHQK", "assay": "Inhibition of GR (unknown origin)"}, "[11]": {"molecular_target": "Prostaglandin G/H synthase 2 (Homo sapiens) (UniProt P35354)", "assay": "Inhibition of cyclooxygenase 2 (unknown origin)"}, "[12]": {"system": "Mus musculus", "assay": "Decrease in fasting glucose levels in DIO C57/B6 mouse model in basal portion at 44 mg/kg/hr for 90 mins", "type": "functional, organism-based"}, "[13]": {"molecular_target": "Type-1 angiotensin II receptor (Homo sapiens) (UniProt P30556)", "sequence (P30556 whole entry)": "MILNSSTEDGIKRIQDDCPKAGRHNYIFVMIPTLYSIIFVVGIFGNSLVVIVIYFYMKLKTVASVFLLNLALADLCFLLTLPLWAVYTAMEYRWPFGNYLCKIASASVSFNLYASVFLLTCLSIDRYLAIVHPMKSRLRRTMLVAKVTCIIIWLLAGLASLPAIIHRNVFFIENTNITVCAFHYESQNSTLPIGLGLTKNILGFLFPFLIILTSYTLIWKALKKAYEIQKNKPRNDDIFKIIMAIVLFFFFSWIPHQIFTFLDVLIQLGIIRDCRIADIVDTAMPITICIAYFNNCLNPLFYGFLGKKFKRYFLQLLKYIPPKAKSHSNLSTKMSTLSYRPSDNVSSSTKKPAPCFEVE", "assay": "Inhibition of AGTR1 (unknown origin)"}, "[14]": {"species": "Rattus norvegicus", "assay": "Increase in […][13C]-citrate levels in rat plasma measured over 140 to 150 mins by UPLC-MS/MS analysis", "type": "functional, organism-based"}, "[15]": {"molecular_target": "cGMP-specific 3',5'-cyclic phosphodiesterase (Homo sapiens) (UniProt O76074)", "assay": "Inhibition of PDE5A1 (unknown origin)"}, "[16]": {"molecular_target": "Na(+)/citrate cotransporter (Homo sapiens, UniProt Q86YT5)", "sequence (Q86YT5 whole entry)": "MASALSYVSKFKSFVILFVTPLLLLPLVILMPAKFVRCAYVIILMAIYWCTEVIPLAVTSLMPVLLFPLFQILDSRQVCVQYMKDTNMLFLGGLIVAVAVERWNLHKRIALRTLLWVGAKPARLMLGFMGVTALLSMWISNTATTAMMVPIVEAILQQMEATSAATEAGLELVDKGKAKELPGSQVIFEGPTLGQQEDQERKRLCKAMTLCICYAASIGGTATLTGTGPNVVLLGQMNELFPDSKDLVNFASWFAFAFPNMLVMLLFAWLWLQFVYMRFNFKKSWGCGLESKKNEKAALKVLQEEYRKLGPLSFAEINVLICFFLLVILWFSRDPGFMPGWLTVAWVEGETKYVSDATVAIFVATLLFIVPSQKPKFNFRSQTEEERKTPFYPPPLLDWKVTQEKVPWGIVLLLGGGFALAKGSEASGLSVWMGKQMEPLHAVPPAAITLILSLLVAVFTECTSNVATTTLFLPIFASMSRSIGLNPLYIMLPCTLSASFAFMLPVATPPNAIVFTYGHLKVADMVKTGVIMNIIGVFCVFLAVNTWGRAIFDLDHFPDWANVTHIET", "assay": "Inhibition of NaCT (unknown origin) expressed in HEK293 cells assessed as inhibition of [14C]citrate uptake by microbeta plate reader analysis", "type": "cell-based", "conditions": "read-out: IC50"}, "[17]": {"molecular_target": "cGMP-inhibited 3',5'-cyclic phosphodiesterase 3B (Homo sapiens) (UniProt Q13370)", "assay": "Inhibition of PDE3B (unknown origin)"}, "[18]": {"molecular_target": "Adenosine receptor A1 (Homo sapiens) (UniProt P30542)", "assay": "Inhibition of ADORA1 (unknown origin)"}, "[19]": {"assay": "Renal clearance in Wistar Han rat at 1 mg/kg, iv by LC-MS/MS analysis", "type": "ADME, organism-based, Kidney", "conditions": "in vivo"}, "[20]": {"system": "Rattus norvegicus", "assay": "Decrease in [14C]citrate uptake in iv dosed Wistar Han rat kidney measured after 185 to 200 mins by scintillation counting method", "type": "functional, organism-based"}, "[21]": {"molecular_target": "Histamine H3 receptor (Homo sapiens) (UniProt Q9Y5N1)", "sequence (Q9Y5N1 whole entry)": "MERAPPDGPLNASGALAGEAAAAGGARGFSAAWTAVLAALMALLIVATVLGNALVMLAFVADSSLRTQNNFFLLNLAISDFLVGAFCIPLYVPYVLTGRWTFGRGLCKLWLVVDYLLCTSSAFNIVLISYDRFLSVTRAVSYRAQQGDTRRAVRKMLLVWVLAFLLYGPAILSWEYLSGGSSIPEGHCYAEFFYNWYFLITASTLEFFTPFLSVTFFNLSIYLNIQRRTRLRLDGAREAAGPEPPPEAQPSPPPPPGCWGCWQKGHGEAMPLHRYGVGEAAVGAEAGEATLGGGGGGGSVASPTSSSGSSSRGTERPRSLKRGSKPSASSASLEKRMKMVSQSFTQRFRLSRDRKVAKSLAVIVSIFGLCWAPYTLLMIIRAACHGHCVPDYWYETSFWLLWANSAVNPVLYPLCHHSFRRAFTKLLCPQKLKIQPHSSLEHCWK", "assay": "Inhibition of H3 (unknown origin)"}, "[22]": {"molecular_target": "Amine oxidase [flavin-containing] A (Homo sapiens, UniProt P21397)", "assay": "Inhibition of MAOA (unknown origin)"}, "[23]": {"species": "Homo sapiens", "assay": "Inhibition of PDE3A1 (unknown origin)"}, "[24]": {"molecular_target": "Cytochrome P450 1A2 (Homo sapiens, UniProt P05177)", "sequence (P05177 whole entry)": "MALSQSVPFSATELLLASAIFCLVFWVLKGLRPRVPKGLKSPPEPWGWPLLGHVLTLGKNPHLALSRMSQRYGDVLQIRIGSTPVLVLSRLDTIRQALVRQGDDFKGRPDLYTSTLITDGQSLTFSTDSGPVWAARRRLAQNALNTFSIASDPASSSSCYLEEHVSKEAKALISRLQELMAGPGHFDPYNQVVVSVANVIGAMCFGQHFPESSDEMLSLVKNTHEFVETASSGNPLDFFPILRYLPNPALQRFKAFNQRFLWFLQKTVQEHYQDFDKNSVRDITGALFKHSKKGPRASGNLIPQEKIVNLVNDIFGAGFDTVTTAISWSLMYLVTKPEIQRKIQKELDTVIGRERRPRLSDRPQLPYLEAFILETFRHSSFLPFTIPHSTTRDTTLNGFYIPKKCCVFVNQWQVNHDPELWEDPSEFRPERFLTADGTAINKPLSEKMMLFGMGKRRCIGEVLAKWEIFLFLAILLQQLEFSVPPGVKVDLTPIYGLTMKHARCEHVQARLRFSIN", "assay": "Inhibition of CYP1A2 (unknown origin)", "type": "ADME"}, "[25]": {"molecular_target": "Neuronal acetylcholine receptor; alpha4/beta2 (Homo sapiens) (UniProt P17787+P43681)", "assay": "Inhibition of alpha-4/beta-2 (unknown origin)", "type": "protein-complex assay"}, "[26]": {"molecular_target": "5-hydroxytryptamine receptor 1B (Homo sapiens) (UniProt P28222)", "assay": "Inhibition of 5HT1B (unknown origin)"}, "[27]": {"molecular_target": "D(1A) dopamine receptor (Homo sapiens) (UniProt P21728)", "sequence (P21728 whole entry)": "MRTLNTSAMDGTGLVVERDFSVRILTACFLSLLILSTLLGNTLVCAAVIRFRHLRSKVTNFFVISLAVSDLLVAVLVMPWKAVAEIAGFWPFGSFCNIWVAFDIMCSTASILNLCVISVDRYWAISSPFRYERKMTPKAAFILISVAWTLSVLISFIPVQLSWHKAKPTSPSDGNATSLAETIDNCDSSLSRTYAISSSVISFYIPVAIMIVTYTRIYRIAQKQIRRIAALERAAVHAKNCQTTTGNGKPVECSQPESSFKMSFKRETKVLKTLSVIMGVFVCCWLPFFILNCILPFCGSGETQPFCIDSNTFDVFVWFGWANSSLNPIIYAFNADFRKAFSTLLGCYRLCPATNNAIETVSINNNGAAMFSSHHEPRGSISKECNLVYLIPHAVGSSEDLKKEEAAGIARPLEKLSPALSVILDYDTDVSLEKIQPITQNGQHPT", "assay": "Inhibition of D1 (unknown origin)"}, "[28]": {"system": "Mus musculus", "assay": "Increase in urinary citrate output in C57BL/6J mouse at 250 mg/kg, po measured after 7 hrs by UPLC-MS/MS analysis", "type": "functional, Urine"}, "[29]": {"molecular_target": "5-hydroxytryptamine receptor 1A (Homo sapiens) (UniProt P08908)", "assay": "Inhibition of 5HT1A (unknown origin)"}, "[30]": {"assay": "Passive permeability in MDCK cells", "type": "ADME, cell-based, Canis lupus familiaris", "conditions": "dog"}, "[31]": {"assay": "Clearance in human hepatocytes assessed per 10^6 cells", "type": "ADME, cell-based, Hepatocyte", "conditions": "read-out: CLH"}, "[32]": {"molecular_target": "Histamine H2 receptor (Homo sapiens) (UniProt P25021)", "assay": "Inhibition of H2 (unknown origin)"}, "[33]": {"molecular_target": "Sodium-dependent phosphate transport protein 2A (Homo sapiens) (UniProt Q06495)", "assay": "Inhibition of NaPiA2 (unknown origin)"}, "[34]": {"species": "Mus musculus", "assay": "Decrease in [14C]citrate uptake in DIO mouse liver during hyperinsulinemic-euglycemic clamp", "type": "functional, organism-based"}, "[35]": {"molecular_target": "Beta-1 adrenergic receptor (Homo sapiens) (UniProt P08588)", "assay": "Inhibition of ADRB1 (unknown origin)"}, "[36]": {"molecular_target": "Mu-type opioid receptor (Homo sapiens) (UniProt P35372)", "assay": "Inhibition of MOP (unknown origin)"}, "[37]": {"molecular_target": "Sodium-dependent dopamine transporter (Homo sapiens) (UniProt Q01959)", "assay": "Inhibition of DAT (unknown origin)"}, "[38]": {"molecular_target": "Sodium-dependent phosphate transport protein 3 (Homo sapiens) (UniProt O00624)", "sequence (O00624 whole entry)": "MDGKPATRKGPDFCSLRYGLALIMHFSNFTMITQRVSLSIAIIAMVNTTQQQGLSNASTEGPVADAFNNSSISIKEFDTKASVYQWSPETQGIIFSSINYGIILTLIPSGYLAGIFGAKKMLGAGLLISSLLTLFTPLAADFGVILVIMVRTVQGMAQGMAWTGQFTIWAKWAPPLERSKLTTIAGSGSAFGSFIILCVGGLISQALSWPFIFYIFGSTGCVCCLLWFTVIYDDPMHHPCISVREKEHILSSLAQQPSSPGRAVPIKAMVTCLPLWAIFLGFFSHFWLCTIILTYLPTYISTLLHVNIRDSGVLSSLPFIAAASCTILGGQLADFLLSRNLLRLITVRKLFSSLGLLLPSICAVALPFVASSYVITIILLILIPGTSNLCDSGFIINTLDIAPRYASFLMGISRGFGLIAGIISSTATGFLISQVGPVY", "assay": "Inhibition of NaPiA3 (unknown origin)"}, "[39]": {"molecular_target": "5-hydroxytryptamine receptor 2A (Homo sapiens) (UniProt P28223)", "assay": "Inhibition of 5HT2A receptor (unknown origin)"}, "[40]": {"assay": "Volume of distribution at steady state in Wistar Han rat at 1 mg/kg, iv by LC-MS/MS analysis", "type": "ADME, organism-based", "conditions": "in vivo, read-out: Vdss"}}, "note": "The source made the active and inactive calls. The calls are words filed in the database; no cut-off is given here."}
{"smiles": "COc1ncc(C)cc1CC[C@@](O)(CC(=O)O)C(=O)O", "values": [{"measurement": "inhibition", "setting": "[1]", "result": "inactive"}, {"measurement": "IC50", "setting": "[2]; read-out: IC50", "result": 13.2, "unit": "µM"}, {"measurement": "IC50", "setting": "[2]; read-out: pIC50 (converted)", "result": 10, "unit": "µM"}, {"measurement": "inhibition (INH)", "setting": "[3]", "result": "Not Active"}, {"measurement": "inhibition", "setting": "[4]", "result": "inactive"}, {"measurement": "inhibition", "setting": "[5]", "result": "inactive"}, {"measurement": "inhibition", "setting": "[6]", "result": "inactive"}, {"measurement": "inhibition", "setting": "[7]", "result": "inactive"}, {"measurement": "inhibition (INH)", "setting": "[8]", "result": "Not Active"}, {"measurement": "Activity", "setting": "[9]", "result": "inactive"}, {"measurement": "inhibition", "setting": "[10]", "result": "inactive"}, {"measurement": "inhibition", "setting": "[11]", "result": "inactive"}, {"measurement": "inhibition", "setting": "[12]", "result": "Active"}, {"measurement": "inhibition", "setting": "[13]", "result": "inactive"}, {"measurement": "Activity", "setting": "[14]", "result": "Active"}, {"measurement": "inhibition", "setting": "[15]", "result": "inactive"}, {"measurement": "IC50", "setting": "[16]", "result": 0.51, "unit": "µM"}, {"measurement": "inhibition", "setting": "[17]", "result": "inactive"}, {"measurement": "inhibition", "setting": "[18]", "result": "inactive"}, {"measurement": "CL renal", "setting": "[19]", "result": 0.264, "unit": "L/h/kg"}, {"measurement": "IC50", "setting": "[20]", "result": 1, "unit": "µM"}, {"measurement": "inhibition", "setting": "[21]", "result": "inactive"}, {"measurement": "inhibition (INH)", "setting": "[22]", "result": "Not Active"}, {"measurement": "inhibition", "setting": "[23]", "result": "inactive"}, {"measurement": "inhibition (INH)", "setting": "[24]", "result": "Not Active"}, {"measurement": "inhibition", "setting": "[25]", "result": "inactive"}, {"measurement": "inhibition", "setting": "[26]", "result": "inactive"}, {"measurement": "inhibition", "setting": "[27]", "result": "inactive"}, {"measurement": "fold change (FC)", "setting": "[28]", "result": 230}, {"measurement": "inhibition", "setting": "[29]", "result": "inactive"}, {"measurement": "Papp", "setting": "[30]", "result": 3, "unit": "nm/s"}, {"measurement": "hepatocyte CLint", "setting": "[31]", "result": 7, "unit": "µL/min/1e6 cells"}, {"measurement": "inhibition", "setting": "[32]", "result": "inactive"}, {"measurement": "inhibition", "setting": "[33]", "result": "inactive"}, {"measurement": "inhibition", "setting": "[34]", "result": "Active"}, {"measurement": "inhibition", "setting": "[35]", "result": "inactive"}, {"measurement": "inhibition", "setting": "[36]", "result": "inactive"}, {"measurement": "inhibition", "setting": "[37]", "result": "inactive"}, {"measurement": "inhibition", "setting": "[38]", "result": "inactive"}, {"measurement": "inhibition", "setting": "[39]", "result": "inactive"}, {"measurement": "Vd", "setting": "[40]", "result": 0.54, "unit": "L/kg"}]}
